# Experimental data taken from patent publication US20230017045A1, “PYRIDINE AND PYRIMIDINE CARBOXYLATE HERBICIDES AND METHODS OF USE THEREOF” (Dow AgroSciences LLC, priority 2017, published 2023).
# Test system: test plant species
# Assay: Post-emergent herbicidal activity test (greenhouse, foliar spray, visual growth reduction)
# Assay type: in vivo
# Conditions: post-emergence, 336 h, ALOMY: blackgrass (Alopecurus myosuroides), 140 g ai/ha, 14 days after application, read-out: Visual Growth Reduction (%) 14 Days After Application, ALOMY
# How it was run: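 Plants grown in greenhouse (15 h photoperiod, 23-29° C day/22-28° C night) to first or second true leaf stage were sprayed overhead with compound in acetone/water/isopropanol/DMSO/crop oil/X-77 carrier at 187 L/ha. Injury was scored visually after 14 d on a 0-100% scale versus solvent-blank and untreated controls.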
row,SMILES,pest or weed control at 140 g/ha
1,"COC(=O)c1nc(-c2ccc(C(F)(F)F)cc2Cl)ncc1OC [F104, Methyl 2-(2-chloro-4-(trifluoromethyl)phenyl)-5-methoxypyrimidine-4-carboxylate]",0 to 29%
2,"COC(=O)c1cc(Cl)cc(-c2ccc(Cl)cc2Cl)n1 [F56, Methyl 4-chloro-6-(2,4-dichlorophenyl) picolinate]",0 to 29%
3,"COC(=O)c1nc(-c2ccc(OC(F)(F)F)cc2)c(F)cc1Cl [F185, Methyl 3-chloro-5-fluoro-6-(4-(trifluoromethoxy)phenyl)picolinate]",0 to 29%

# Same assay, conditions: post-emergence, 336 h, AMARE: redroot pigweed (Amaranthus retroflexus), 140 g ai/ha, 14 days after application, read-out: Visual Growth Reduction (%) 14 Days After Application, AMARE
row,SMILES,pest or weed control at 140 g/ha
1,"COC(=O)c1nc(-c2ccc(C(F)(F)F)cc2Cl)ncc1OC [F104, Methyl 2-(2-chloro-4-(trifluoromethyl)phenyl)-5-methoxypyrimidine-4-carboxylate]",0 to 29%
2,"COC(=O)c1cc(Cl)cc(-c2ccc(Cl)cc2Cl)n1 [F56, Methyl 4-chloro-6-(2,4-dichlorophenyl) picolinate]",0 to 29%
3,"COC(=O)c1nc(-c2ccc(OC(F)(F)F)cc2)c(F)cc1Cl [F185, Methyl 3-chloro-5-fluoro-6-(4-(trifluoromethoxy)phenyl)picolinate]",0 to 29%

# Same assay, conditions: post-emergence, 336 h, AVEFA: wild oat (Avena fatua), 140 g ai/ha, 14 days after application, read-out: Visual Growth Reduction (%) 14 Days After Application, AVEFA
row,SMILES,pest or weed control at 140 g/ha
1,"COC(=O)c1nc(-c2ccc(C(F)(F)F)cc2Cl)ncc1OC [F104, Methyl 2-(2-chloro-4-(trifluoromethyl)phenyl)-5-methoxypyrimidine-4-carboxylate]",0 to 29%
2,"COC(=O)c1cc(Cl)cc(-c2ccc(Cl)cc2Cl)n1 [F56, Methyl 4-chloro-6-(2,4-dichlorophenyl) picolinate]",0 to 29%
3,"COC(=O)c1nc(-c2ccc(OC(F)(F)F)cc2)c(F)cc1Cl [F185, Methyl 3-chloro-5-fluoro-6-(4-(trifluoromethoxy)phenyl)picolinate]",0 to 29%

# Same assay, conditions: post-emergence, 336 h, CHEAL: lambsquarters (Chenopodium album), 140 g ai/ha, 14 days after application, read-out: Visual Growth Reduction (%) 14 Days After Application, CHEAL
row,SMILES,pest or weed control at 140 g/ha
1,"COC(=O)c1nc(-c2ccc(C(F)(F)F)cc2Cl)ncc1OC [F104, Methyl 2-(2-chloro-4-(trifluoromethyl)phenyl)-5-methoxypyrimidine-4-carboxylate]",0 to 29%
2,"COC(=O)c1cc(Cl)cc(-c2ccc(Cl)cc2Cl)n1 [F56, Methyl 4-chloro-6-(2,4-dichlorophenyl) picolinate]",0 to 29%
3,"COC(=O)c1nc(-c2ccc(OC(F)(F)F)cc2)c(F)cc1Cl [F185, Methyl 3-chloro-5-fluoro-6-(4-(trifluoromethoxy)phenyl)picolinate]",45 to 59%

# Same assay, conditions: post-emergence, 336 h, CIRAR: canada thistle (Cirsium arvense), 140 g ai/ha, 14 days after application, read-out: Visual Growth Reduction (%) 14 Days After Application, CIRAR
row,SMILES,pest or weed control at 140 g/ha
1,"COC(=O)c1nc(-c2ccc(C(F)(F)F)cc2Cl)ncc1OC [F104, Methyl 2-(2-chloro-4-(trifluoromethyl)phenyl)-5-methoxypyrimidine-4-carboxylate]",0 to 29%
2,"COC(=O)c1cc(Cl)cc(-c2ccc(Cl)cc2Cl)n1 [F56, Methyl 4-chloro-6-(2,4-dichlorophenyl) picolinate]",0 to 29%
3,"COC(=O)c1nc(-c2ccc(OC(F)(F)F)cc2)c(F)cc1Cl [F185, Methyl 3-chloro-5-fluoro-6-(4-(trifluoromethoxy)phenyl)picolinate]",0 to 29%

# Same assay, conditions: post-emergence, 336 h, CYPES: yellow nutsedge (Cyperus esculentus), 140 g ai/ha, 14 days after application, read-out: Visual Growth Reduction (%) 14 Days After Application, CYPES
row,SMILES,pest or weed control at 140 g/ha
1,"COC(=O)c1nc(-c2ccc(C(F)(F)F)cc2Cl)ncc1OC [F104, Methyl 2-(2-chloro-4-(trifluoromethyl)phenyl)-5-methoxypyrimidine-4-carboxylate]",0 to 29%
2,"COC(=O)c1cc(Cl)cc(-c2ccc(Cl)cc2Cl)n1 [F56, Methyl 4-chloro-6-(2,4-dichlorophenyl) picolinate]",0 to 29%
3,"COC(=O)c1nc(-c2ccc(OC(F)(F)F)cc2)c(F)cc1Cl [F185, Methyl 3-chloro-5-fluoro-6-(4-(trifluoromethoxy)phenyl)picolinate]",0 to 29%

# Same assay, conditions: post-emergence, 336 h, DIGSA: crabgrass (Digitaria sanguinalis), 140 g ai/ha, 14 days after application, read-out: Visual Growth Reduction (%) 14 Days After Application, DIGSA
row,SMILES,pest or weed control at 140 g/ha
1,"COC(=O)c1nc(-c2ccc(C(F)(F)F)cc2Cl)ncc1OC [F104, Methyl 2-(2-chloro-4-(trifluoromethyl)phenyl)-5-methoxypyrimidine-4-carboxylate]",60 to 74%
2,"COC(=O)c1cc(Cl)cc(-c2ccc(Cl)cc2Cl)n1 [F56, Methyl 4-chloro-6-(2,4-dichlorophenyl) picolinate]",0 to 29%
3,"COC(=O)c1nc(-c2ccc(OC(F)(F)F)cc2)c(F)cc1Cl [F185, Methyl 3-chloro-5-fluoro-6-(4-(trifluoromethoxy)phenyl)picolinate]",75 to 84%

# Same assay, conditions: post-emergence, 336 h, ECHCG: barnyardgrass (Echinochloa crus-galli), 140 g ai/ha, 14 days after application, read-out: Visual Growth Reduction (%) 14 Days After Application, ECHCG
row,SMILES,pest or weed control at 140 g/ha
1,"COC(=O)c1nc(-c2ccc(C(F)(F)F)cc2Cl)ncc1OC [F104, Methyl 2-(2-chloro-4-(trifluoromethyl)phenyl)-5-methoxypyrimidine-4-carboxylate]",0 to 29%
2,"COC(=O)c1cc(Cl)cc(-c2ccc(Cl)cc2Cl)n1 [F56, Methyl 4-chloro-6-(2,4-dichlorophenyl) picolinate]",0 to 29%
3,"COC(=O)c1nc(-c2ccc(OC(F)(F)F)cc2)c(F)cc1Cl [F185, Methyl 3-chloro-5-fluoro-6-(4-(trifluoromethoxy)phenyl)picolinate]",0 to 29%

# Same assay, conditions: post-emergence, 336 h, IPOHE: ivy-leaf morning glory (Ipomoea hederacea), 140 g ai/ha, 14 days after application, read-out: Visual Growth Reduction (%) 14 Days After Application, IPOHE
row,SMILES,pest or weed control at 140 g/ha
1,"COC(=O)c1nc(-c2ccc(C(F)(F)F)cc2Cl)ncc1OC [F104, Methyl 2-(2-chloro-4-(trifluoromethyl)phenyl)-5-methoxypyrimidine-4-carboxylate]",60 to 74%
2,"COC(=O)c1cc(Cl)cc(-c2ccc(Cl)cc2Cl)n1 [F56, Methyl 4-chloro-6-(2,4-dichlorophenyl) picolinate]",0 to 29%
3,"COC(=O)c1nc(-c2ccc(OC(F)(F)F)cc2)c(F)cc1Cl [F185, Methyl 3-chloro-5-fluoro-6-(4-(trifluoromethoxy)phenyl)picolinate]",75 to 84%

# Same assay, conditions: post-emergence, 336 h, KCHSC: kochia (Bassia scoparia), 140 g ai/ha, 14 days after application, read-out: Visual Growth Reduction (%) 14 Days After Application, KCHSC
row,SMILES,pest or weed control at 140 g/ha
1,"COC(=O)c1nc(-c2ccc(C(F)(F)F)cc2Cl)ncc1OC [F104, Methyl 2-(2-chloro-4-(trifluoromethyl)phenyl)-5-methoxypyrimidine-4-carboxylate]",0 to 29%
2,"COC(=O)c1cc(Cl)cc(-c2ccc(Cl)cc2Cl)n1 [F56, Methyl 4-chloro-6-(2,4-dichlorophenyl) picolinate]",0 to 29%
3,"COC(=O)c1nc(-c2ccc(OC(F)(F)F)cc2)c(F)cc1Cl [F185, Methyl 3-chloro-5-fluoro-6-(4-(trifluoromethoxy)phenyl)picolinate]",0 to 29%

# Same assay, conditions: post-emergence, 336 h, ORYSA: rice (Oryza sativa), 140 g ai/ha, 14 days after application, read-out: Visual Growth Reduction (%) 14 Days After Application, ORYSA
row,SMILES,pest or weed control at 140 g/ha
1,"COC(=O)c1nc(-c2ccc(C(F)(F)F)cc2Cl)ncc1OC [F104, Methyl 2-(2-chloro-4-(trifluoromethyl)phenyl)-5-methoxypyrimidine-4-carboxylate]",0 to 29%
2,"COC(=O)c1cc(Cl)cc(-c2ccc(Cl)cc2Cl)n1 [F56, Methyl 4-chloro-6-(2,4-dichlorophenyl) picolinate]",0 to 29%
3,"COC(=O)c1nc(-c2ccc(OC(F)(F)F)cc2)c(F)cc1Cl [F185, Methyl 3-chloro-5-fluoro-6-(4-(trifluoromethoxy)phenyl)picolinate]",0 to 29%

# Same assay, conditions: post-emergence, 336 h, SETFA: giant foxtail (Setaria faberi), 140 g ai/ha, 14 days after application, read-out: Visual Growth Reduction (%) 14 Days After Application, SETFA
row,SMILES,pest or weed control at 140 g/ha
1,"COC(=O)c1nc(-c2ccc(C(F)(F)F)cc2Cl)ncc1OC [F104, Methyl 2-(2-chloro-4-(trifluoromethyl)phenyl)-5-methoxypyrimidine-4-carboxylate]",0 to 29%
2,"COC(=O)c1cc(Cl)cc(-c2ccc(Cl)cc2Cl)n1 [F56, Methyl 4-chloro-6-(2,4-dichlorophenyl) picolinate]",0 to 29%
3,"COC(=O)c1nc(-c2ccc(OC(F)(F)F)cc2)c(F)cc1Cl [F185, Methyl 3-chloro-5-fluoro-6-(4-(trifluoromethoxy)phenyl)picolinate]",30 to 44%

# Same assay, conditions: post-emergence, 336 h, SORVU: grain sorghum (Sorghum vulgare), 140 g ai/ha, 14 days after application, read-out: Visual Growth Reduction (%) 14 Days After Application, SORVU
row,SMILES,pest or weed control at 140 g/ha
1,"COC(=O)c1nc(-c2ccc(C(F)(F)F)cc2Cl)ncc1OC [F104, Methyl 2-(2-chloro-4-(trifluoromethyl)phenyl)-5-methoxypyrimidine-4-carboxylate]",60 to 74%
2,"COC(=O)c1cc(Cl)cc(-c2ccc(Cl)cc2Cl)n1 [F56, Methyl 4-chloro-6-(2,4-dichlorophenyl) picolinate]",0 to 29%
3,"COC(=O)c1nc(-c2ccc(OC(F)(F)F)cc2)c(F)cc1Cl [F185, Methyl 3-chloro-5-fluoro-6-(4-(trifluoromethoxy)phenyl)picolinate]",60 to 74%

# Same assay, conditions: post-emergence, 336 h, STEME: common chickweed (Stellaria media), 140 g ai/ha, 14 days after application, read-out: Visual Growth Reduction (%) 14 Days After Application, STEME
row,SMILES,pest or weed control at 140 g/ha
1,"COC(=O)c1nc(-c2ccc(C(F)(F)F)cc2Cl)ncc1OC [F104, Methyl 2-(2-chloro-4-(trifluoromethyl)phenyl)-5-methoxypyrimidine-4-carboxylate]",0 to 29%
2,"COC(=O)c1cc(Cl)cc(-c2ccc(Cl)cc2Cl)n1 [F56, Methyl 4-chloro-6-(2,4-dichlorophenyl) picolinate]",0 to 29%
3,"COC(=O)c1nc(-c2ccc(OC(F)(F)F)cc2)c(F)cc1Cl [F185, Methyl 3-chloro-5-fluoro-6-(4-(trifluoromethoxy)phenyl)picolinate]",0 to 29%

# Same assay, conditions: post-emergence, 336 h, TRZAS: wheat, spring (Triticum aestivum), 140 g ai/ha, 14 days after application, read-out: Visual Growth Reduction (%) 14 Days After Application, TRZAS
row,SMILES,pest or weed control at 140 g/ha
1,"COC(=O)c1nc(-c2ccc(C(F)(F)F)cc2Cl)ncc1OC [F104, Methyl 2-(2-chloro-4-(trifluoromethyl)phenyl)-5-methoxypyrimidine-4-carboxylate]",0 to 29%
2,"COC(=O)c1cc(Cl)cc(-c2ccc(Cl)cc2Cl)n1 [F56, Methyl 4-chloro-6-(2,4-dichlorophenyl) picolinate]",0 to 29%
3,"COC(=O)c1nc(-c2ccc(OC(F)(F)F)cc2)c(F)cc1Cl [F185, Methyl 3-chloro-5-fluoro-6-(4-(trifluoromethoxy)phenyl)picolinate]",0 to 29%
